Experimental data as given in ChEMBL document CHEMBL1146681, “Design and synthesis of 3,7-diarylimidazopyridines as inhibitors of the VEGF-receptor KDR” (Bioorg Med Chem Lett, 2004).

Key:
[1] = target: T1, Vascular endothelial growth factor receptor 2 (Homo sapiens, UniProt P35968); assay: Inhibition of VEGF stimulated phosphorylation of KDR on tyrosine residues in human kidney cells expressing vascular endothelial growth factor receptor 2; type: cell-based
[2] = target: T1, Vascular endothelial growth factor receptor 2; assay: Intrinsic potency against VEGF stimulated KDR phosphorylation; type: functional
[3] = target: T1, Vascular endothelial growth factor receptor 2; assay: Inhibition of phosphorylation of poly-Glu/Tyr (4:1) peptide substrate by VEGF-receptor 2 (KDR) kinase
[4] = target: Vascular endothelial growth factor receptor 1 and 2 (Flt-1 and KDR) (Homo sapiens) (UniProt P17948+P35968); assay: Selectivity for VEGF-receptor 2 over fms-like tyrosine kinase 1, VEGF-receptor 1; type: protein assay
[5] = target: VEGF-receptor 2 and tyrosine-protein kinase SRC (Homo sapiens) (UniProt P12931+P35968); assay: Selectivity for VEGF-receptor 2 over c-Src tyrosine kinase; type: protein assay
[6] = target: VEGF-receptor 2 and PDGF-receptor beta (KDR and PDGFR beta) (Homo sapiens) (UniProt P09619+P35968); assay: Selectivity for VEGFR2 over platelet-derived growth factor receptor beta
[7] = target: Fibroblast growth factor receptor 4 (Homo sapiens) (UniProt P22455); assay: Selectivity for fibroblast growth factor receptor 4
[8] = target: Vascular endothelial growth factor receptor 2 and 3 (KDR and Flt-4) (Homo sapiens) (UniProt P35916+P35968); assay: Selectivity of for VEGF-receptor 2 over fms-like tyrosine kinase-4, VEGF-receptor 3; type: protein assay
[9] = target: VEGF-receptor 2 and Fibroblast growth factor receptor 1 (Homo sapiens) (UniProt P35968+P11362); assay: Selectivity for VEGF-receptor 2 over fibroblast growth factor receptor 1; type: protein assay
VEGF-receptor 2 and Fibroblast growth factor receptor 1 (Homo sapiens), sequence (P11362 whole entry, looked up): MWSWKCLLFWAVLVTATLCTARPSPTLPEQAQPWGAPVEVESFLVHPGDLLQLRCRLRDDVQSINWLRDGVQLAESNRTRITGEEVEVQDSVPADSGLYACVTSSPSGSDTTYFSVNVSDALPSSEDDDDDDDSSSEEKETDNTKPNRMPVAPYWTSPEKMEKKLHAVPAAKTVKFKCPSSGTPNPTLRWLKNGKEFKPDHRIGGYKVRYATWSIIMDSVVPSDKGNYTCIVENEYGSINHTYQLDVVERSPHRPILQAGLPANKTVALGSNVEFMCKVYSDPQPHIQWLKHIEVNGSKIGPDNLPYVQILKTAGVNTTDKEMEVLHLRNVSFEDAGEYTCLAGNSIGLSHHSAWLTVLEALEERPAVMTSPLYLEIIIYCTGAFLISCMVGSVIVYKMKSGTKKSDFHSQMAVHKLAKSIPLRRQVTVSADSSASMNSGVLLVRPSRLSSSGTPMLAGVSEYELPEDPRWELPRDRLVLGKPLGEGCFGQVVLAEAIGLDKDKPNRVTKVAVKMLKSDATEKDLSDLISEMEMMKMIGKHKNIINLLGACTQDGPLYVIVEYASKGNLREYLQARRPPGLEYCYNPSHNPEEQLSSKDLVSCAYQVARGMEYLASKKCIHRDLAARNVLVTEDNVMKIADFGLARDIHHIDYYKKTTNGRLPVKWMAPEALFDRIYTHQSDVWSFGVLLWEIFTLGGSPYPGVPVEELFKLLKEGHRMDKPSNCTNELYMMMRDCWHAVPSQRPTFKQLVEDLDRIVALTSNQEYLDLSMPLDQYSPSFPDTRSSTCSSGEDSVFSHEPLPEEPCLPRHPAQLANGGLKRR
VEGF-receptor 2 and Fibroblast growth factor receptor 1 (Homo sapiens), sequence (P35968 whole entry, looked up): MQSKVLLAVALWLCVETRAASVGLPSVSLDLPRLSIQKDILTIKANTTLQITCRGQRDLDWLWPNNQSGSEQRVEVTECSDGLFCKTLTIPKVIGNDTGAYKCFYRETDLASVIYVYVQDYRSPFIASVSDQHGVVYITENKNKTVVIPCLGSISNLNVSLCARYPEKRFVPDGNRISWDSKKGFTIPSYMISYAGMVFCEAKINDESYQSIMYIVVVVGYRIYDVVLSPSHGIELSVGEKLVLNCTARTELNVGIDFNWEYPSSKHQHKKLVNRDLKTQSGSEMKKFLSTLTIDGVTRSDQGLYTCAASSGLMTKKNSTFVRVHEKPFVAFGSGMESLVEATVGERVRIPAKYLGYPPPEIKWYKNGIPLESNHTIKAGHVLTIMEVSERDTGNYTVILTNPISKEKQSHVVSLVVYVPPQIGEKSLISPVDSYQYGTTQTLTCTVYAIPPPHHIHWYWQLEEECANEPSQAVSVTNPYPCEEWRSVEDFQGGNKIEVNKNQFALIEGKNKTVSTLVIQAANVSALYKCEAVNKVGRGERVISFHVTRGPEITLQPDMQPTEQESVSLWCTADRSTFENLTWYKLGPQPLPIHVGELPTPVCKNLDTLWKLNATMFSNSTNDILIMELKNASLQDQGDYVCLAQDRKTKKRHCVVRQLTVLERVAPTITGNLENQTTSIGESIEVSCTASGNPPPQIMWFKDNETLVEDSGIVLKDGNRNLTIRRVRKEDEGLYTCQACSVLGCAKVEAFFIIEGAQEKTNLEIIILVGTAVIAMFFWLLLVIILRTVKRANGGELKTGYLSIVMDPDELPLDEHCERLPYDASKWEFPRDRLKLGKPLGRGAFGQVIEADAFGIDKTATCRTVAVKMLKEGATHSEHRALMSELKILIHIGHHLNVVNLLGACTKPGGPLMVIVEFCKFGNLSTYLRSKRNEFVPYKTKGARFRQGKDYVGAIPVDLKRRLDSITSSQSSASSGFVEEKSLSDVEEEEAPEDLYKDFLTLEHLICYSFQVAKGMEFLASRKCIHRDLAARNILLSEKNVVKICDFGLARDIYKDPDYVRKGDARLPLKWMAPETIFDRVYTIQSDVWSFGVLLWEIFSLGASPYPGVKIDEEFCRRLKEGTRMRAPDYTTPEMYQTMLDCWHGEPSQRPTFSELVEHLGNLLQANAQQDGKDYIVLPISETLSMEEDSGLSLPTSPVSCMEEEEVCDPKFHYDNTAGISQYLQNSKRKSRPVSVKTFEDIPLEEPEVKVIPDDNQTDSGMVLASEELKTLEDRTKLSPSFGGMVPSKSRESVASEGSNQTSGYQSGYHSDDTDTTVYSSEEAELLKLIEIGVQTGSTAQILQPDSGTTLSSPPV

T1 sequence (P35968 whole entry): as the sequence (P35968 whole entry, looked up) above
VEGF-receptor 2 and tyrosine-protein kinase SRC (Homo sapiens), sequence (P12931 whole entry, looked up): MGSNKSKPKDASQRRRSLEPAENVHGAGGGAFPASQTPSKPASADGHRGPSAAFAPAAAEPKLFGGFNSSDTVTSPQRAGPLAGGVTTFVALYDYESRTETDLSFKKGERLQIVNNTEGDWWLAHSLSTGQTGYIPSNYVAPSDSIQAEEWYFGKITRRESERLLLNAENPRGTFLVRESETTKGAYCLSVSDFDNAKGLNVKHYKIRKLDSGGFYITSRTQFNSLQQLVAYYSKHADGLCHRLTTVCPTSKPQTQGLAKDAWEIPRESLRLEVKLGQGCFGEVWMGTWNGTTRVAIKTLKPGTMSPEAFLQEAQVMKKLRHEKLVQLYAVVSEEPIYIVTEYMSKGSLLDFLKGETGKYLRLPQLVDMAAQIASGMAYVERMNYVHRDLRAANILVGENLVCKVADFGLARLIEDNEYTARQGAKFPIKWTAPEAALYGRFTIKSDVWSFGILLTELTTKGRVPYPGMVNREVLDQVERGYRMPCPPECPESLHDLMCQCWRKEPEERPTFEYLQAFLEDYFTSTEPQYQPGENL
VEGF-receptor 2 and tyrosine-protein kinase SRC (Homo sapiens), sequence (P35968 whole entry, looked up): as the sequence (P35968 whole entry, looked up) above
Vascular endothelial growth factor receptor 1 and 2 (Flt-1 and KDR) (Homo sapiens), sequence (P17948 whole entry, looked up): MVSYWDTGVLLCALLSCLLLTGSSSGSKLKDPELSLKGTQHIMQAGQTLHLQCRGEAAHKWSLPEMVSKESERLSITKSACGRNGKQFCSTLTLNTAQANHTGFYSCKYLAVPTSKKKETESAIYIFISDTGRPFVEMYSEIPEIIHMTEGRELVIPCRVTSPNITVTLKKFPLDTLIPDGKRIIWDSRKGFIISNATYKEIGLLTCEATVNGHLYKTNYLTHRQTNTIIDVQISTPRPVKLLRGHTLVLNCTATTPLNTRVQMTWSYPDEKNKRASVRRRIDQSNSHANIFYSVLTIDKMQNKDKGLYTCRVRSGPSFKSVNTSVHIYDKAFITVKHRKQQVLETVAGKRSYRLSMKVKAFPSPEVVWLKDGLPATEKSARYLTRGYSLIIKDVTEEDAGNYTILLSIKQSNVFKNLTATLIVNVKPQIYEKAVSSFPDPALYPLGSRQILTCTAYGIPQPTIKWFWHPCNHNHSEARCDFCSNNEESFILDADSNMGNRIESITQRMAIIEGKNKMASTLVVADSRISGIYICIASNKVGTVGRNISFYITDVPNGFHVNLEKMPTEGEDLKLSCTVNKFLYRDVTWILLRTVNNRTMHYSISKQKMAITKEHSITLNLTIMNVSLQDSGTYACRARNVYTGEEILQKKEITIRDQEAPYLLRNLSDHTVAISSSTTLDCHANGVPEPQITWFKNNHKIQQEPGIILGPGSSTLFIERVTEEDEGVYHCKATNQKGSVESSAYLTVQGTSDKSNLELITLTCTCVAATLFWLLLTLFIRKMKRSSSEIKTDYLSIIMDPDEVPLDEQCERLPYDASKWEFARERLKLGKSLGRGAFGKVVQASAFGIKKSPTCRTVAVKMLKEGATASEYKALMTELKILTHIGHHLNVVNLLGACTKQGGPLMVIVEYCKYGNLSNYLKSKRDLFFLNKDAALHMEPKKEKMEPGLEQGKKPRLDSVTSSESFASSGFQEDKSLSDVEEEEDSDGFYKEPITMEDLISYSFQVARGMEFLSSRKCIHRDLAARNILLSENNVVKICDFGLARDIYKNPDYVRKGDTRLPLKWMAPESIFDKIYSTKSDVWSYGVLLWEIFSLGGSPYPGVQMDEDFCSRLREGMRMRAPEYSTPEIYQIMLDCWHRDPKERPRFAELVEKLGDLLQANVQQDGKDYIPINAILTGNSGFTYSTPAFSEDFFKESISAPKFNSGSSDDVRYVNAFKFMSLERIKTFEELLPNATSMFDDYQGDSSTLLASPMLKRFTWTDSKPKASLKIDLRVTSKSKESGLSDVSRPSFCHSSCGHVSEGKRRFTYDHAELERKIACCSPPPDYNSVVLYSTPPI
Vascular endothelial growth factor receptor 1 and 2 (Flt-1 and KDR) (Homo sapiens), sequence (P35968 whole entry, looked up): as the sequence (P35968 whole entry, looked up) above
Fibroblast growth factor receptor 4 (Homo sapiens), sequence (P22455 22-802 limits assumed): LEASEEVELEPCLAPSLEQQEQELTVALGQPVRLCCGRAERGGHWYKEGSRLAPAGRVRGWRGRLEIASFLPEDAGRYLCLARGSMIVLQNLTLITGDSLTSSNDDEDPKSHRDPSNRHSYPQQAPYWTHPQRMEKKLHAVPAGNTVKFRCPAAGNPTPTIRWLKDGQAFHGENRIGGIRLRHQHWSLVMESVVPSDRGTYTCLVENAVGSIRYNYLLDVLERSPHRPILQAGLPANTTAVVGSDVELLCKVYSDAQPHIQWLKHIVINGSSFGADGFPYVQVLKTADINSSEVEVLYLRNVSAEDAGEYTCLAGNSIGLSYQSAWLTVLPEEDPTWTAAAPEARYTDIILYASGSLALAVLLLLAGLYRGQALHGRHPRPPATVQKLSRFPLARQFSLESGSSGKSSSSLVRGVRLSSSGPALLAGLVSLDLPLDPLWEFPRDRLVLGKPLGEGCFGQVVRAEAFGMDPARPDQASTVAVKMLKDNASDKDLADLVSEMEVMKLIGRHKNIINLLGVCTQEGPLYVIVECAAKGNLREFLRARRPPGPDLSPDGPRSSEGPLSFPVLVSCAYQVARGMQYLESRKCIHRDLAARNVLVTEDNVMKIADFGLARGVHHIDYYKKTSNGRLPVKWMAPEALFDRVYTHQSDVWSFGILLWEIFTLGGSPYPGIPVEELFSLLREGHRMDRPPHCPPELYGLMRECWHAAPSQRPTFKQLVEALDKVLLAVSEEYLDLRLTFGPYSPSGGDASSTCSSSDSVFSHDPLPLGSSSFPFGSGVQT

Row | SMILES | IC50 [1] [nM] | IC50 [2] [nM] | further results
1 | CC(=O)N1CCN(Cc2ccc(-c3ccn4c(-c5ccccc5)cnc4c3)cc2)CC1 | 77 | 300 | 
2 | COc1ccc(-c2cnc3cc(-c4ccccc4)ccn23)cn1 |  |  | IC50 [3]: 2840 nM
3 | c1ccc(-c2ccn3c(-c4cnsc4)cnc3c2)cc1 | 50 |  | 
4 | CS(=O)(=O)N1CCN(Cc2ccc(-c3ccn4c(-c5ccccc5)cnc4c3)cc2)CC1 | 13 | 110 | 
5 | c1ccc(-c2ccn3c(-c4ccccc4)cnc3c2)cc1 | 98 |  | 
6 | c1ccc(-c2ccn3c(-c4cccnc4)cnc3c2)cc1 | 930 |  | 
7 | COCCN(C)CCCn1ccc(-c2ccn3c(-c4ccccc4)cnc3c2)cc1=O | 96 |  | 
8 | O=c1cc(-c2ccn3c(-c4ccccc4)cnc3c2)ccn1CCCO | 120 |  | 
9 | c1ccc(-c2ccn3c(-c4nccs4)cnc3c2)cc1 | 42 |  | Selectivity [4]: 7; Selectivity [5]: 165; Selectivity [6]: 1.4; Selectivity [7]: 23; Selectivity [8]: 1.7; Selectivity [9]: 47
10 | CNC(=O)N1CCN(Cc2ccc(-c3ccn4c(-c5ccccc5)cnc4c3)cc2)CC1 | 52 | 410 | 
11 | O=c1cc(-c2ccn3c(-c4ccccc4)cnc3c2)ccn1CCCN1CCCCC1 | 28 | 51 | Selectivity [4]: 3.1; Selectivity [5]: 68; Selectivity [6]: 1; Selectivity [8]: 2.8; Selectivity [9]: 60
12 | c1ccc(-c2ccn3c(-c4cncs4)cnc3c2)cc1 | 99 |  | 
13 | NC(=O)N1CCN(Cc2ccc(-c3ccn4c(-c5ccccc5)cnc4c3)cc2)CC1 | 69 |  | 
14 | CN(C)CC1CCCN(CCCn2ccc(-c3ccn4c(-c5ccccc5)cnc4c3)cc2=O)C1 (configuration not stated) | 67 | 280 | 
15 | c1ccc(-c2ccn3c(-c4ccncc4)cnc3c2)cc1 | 145 |  | 
16 | COc1cccc(-c2cnc3cc(-c4ccccc4)ccn23)n1 | 242 |  | 
